Test results reported in US8680076B2, “Methods of treatment, improvement and prevention using haloaryl substituted aminopurines” (Signal Pharmaceuticals, LLC, priority 2010, dated 2014).
Entries after “also recorded” stand apart in the source; their conditions may differ.

Legend:
Tsk-1 mice = experiment: Tight skin-1 (Tsk-1) mouse model of systemic sclerosis; type: in vivo; conditions: for decrease of number of myofibroblasts / reduction of hypodermal thickening: 6 weeks; for reduction of hypodermal thickening: compared to untreated mice
Experimental: The antifibrotic effects of the JNK inhibitor Compound JNKi-1 were tested in a murine tight skin-1 (Tsk-1) model of systemic sclerosis. In this model, a dominant mutation in the fibrillin 1 gene (Fbn1^Tsk+/−) leads to a systemic sclerosis-like disease with inflammatory infiltrates and massive fibrosis of the skin (Akhmetshina A, Venalis P, Dees C, Busch N, Zwerina J, Schett G, et al., Treatment with imatinib prevents fibrosis in different preclinical models of systemic sclerosis and induces regression of established fibrosis, Arthritis Rheum. 2009; 60(1):219-24).
Male and female TSK-1 mice were used. Mice were fed a standard diet with water ad libitum. The room temperature was kept constant at 22° C. with a humidity of 60%.
Compound JNKi-1 was dissolved in 0.5% carboxymethylcellulose (CMC)/0.25% Tween 80 in water. As vehicle control a solution of 0.5% CMC/0.25% Tween 80 in water was used. Imatinib mesylate was dissolved in 0.9% NaCl at a concentration of 50 mg/kg/day in a total volume of 100 μL.
Groups of Tsk-1 mice (n=4/sex/group) were assigned to one of five treatment groups: • Untreated wildtype (Fbn1^Tsk−/−) group received 0.5% CMC/0.25% Tween 80 in water orally (PO) twice daily (BID). • Untreated Fbn1Tsk+/− mice received 0.5% CMC/0.25% Tween 80 in water orally BID. • Compound JNKi-1-treated Fbn1^Tsk+/− received 50 mg/kg orally BID. • Compound JNKi-1-treated Fbn1^Tsk+/− received 150 mg/kg orally BID. • Imatinib mesylate-treated Fbn1^Tsk+/− group received 50 mg/kg/day administered intraperitoneally (IP).
Treatments with Compound JNKi-1 and control compound were started at Week 4. After 6 weeks of treatment, mice were sacrificed, and the antifibrotic effects from each treatment were analyzed.
Antifibrotic effects were determined by measuring the dermal thickness and quantifying the numbers of myofibroblasts in the lesional skin. Dermal thickness was determined by measuring the distance from the epidermal/dermal border to the dermal/subdermal border in H & E-stained sections at four different sites. The number of myofibroblasts was quantified by staining for alpha smooth muscle actin (α-SMA) in paraffin-embedded sections. Data are expressed as mean±standard error of the mean (SEM). SPSS17.0 software and the Mann-Whitney-U-test were used for statistical analyses. A p-value of less than 0.05 was considered statistically significant.

[1] = system: phospho-c-Jun (JNK) in normal human epithelial keratinocytes (nHEK); experiment: UVB-stimulated JNK activation in nHEK cells (Western blot); type: cell-based
Experimental: Two in vitro systems, nHEK and the EpiDermFT™ skin model, were used in this study. The nHEK cells and EpiDermFT™ samples were pretreated with JNKi-1 at concentrations of 0.1, 3, and 10 μM prior to 60 mJ/cm^2 and 135 mJ/cm^2 UVB irradiation, respectively. After UV stimulation, the activities of JNK were measured as levels of phospho-c-Jun via immunoblotting of cell lysates using an anti-phospho-c-Jun S63 antibody. Phospho-Stat3 was also evaluated as a marker of JNK activation.
nHEK Model system. Normal human epithelial keratinocytes (nHEK) cells were grown after three passages. Cells were plated at 2×10^6/plate in 100 mm plates. Plates were incubated at 37° C., 5% CO2 for 5 days until ˜80% confluent. Each plate was washed with warm phosphate buffered saline (PBS) and replenished with 10 mL of media containing either 0, 0.1, 3, or 10 μM of JNKi-1 and incubated for 1 hour (hr) at 37° C. Eight mL of media were removed and set aside. Plates were irradiated with 60 mJ/cm^2 of UVB in a UV cross-linker machine and control plates were sham irradiated. The 8 mL of media set aside were returned to each plate and stored at 37° C. Cells were harvested at 30 minutes and 4 hr post UV treatment and lysed in ice cold cell extraction buffer. Lysates were stored at −80° C.
cells were pre-incubated with either dimethyl sulfoxide (DMSO) (FIG. 31, lanes 1, 2, and 12 to 15) or JNKi-1 at the indicated concentration (lanes 3 to 11) for 1 hr and then irradiated without (Control, lanes 1 and 2) or with UVB at 60 mJ/cm^2 (lanes 3 to 15). Cells were lysed 30 minutes after UV irradiation and cell lysates were subjected to sodium dodecyl sulfate polyacrylamide gel electrophoresis (SDS-PAGE) before Western blotting with anti-phospho-c-Jun antibody. […]
Western analysis: For Western blot analysis, 20 to 25 μg of total protein were applied to SDS-PAGE gels followed by electrophoresis and blotting. […] The intensity of each band was quantified by the Odyssey 2.1 software and exported into Excel for further analysis. […]

With `O[C@H]1CC[C@H](Nc2ncc3nc(Nc4c(F)cc(F)cc4F)n([C@H]4CCOC4)c3n2)CC1` [JNKi-1, 4-((9-((3S)-tetrahydro-3-furanyl)-8-((2,4,6-trifluorophenyl)amino)-9H-purin-2-yl)amino)-trans-cyclohexanol] the “decrease of number of myofibroblasts” value (Tsk-1 mice; 50 mg/kg orally BID) was 68%±28%, the “reduction of hypodermal thickening” value (Tsk-1 mice; 50 mg/kg orally BID) was 67%±5% and the “decrease of number of myofibroblasts” value (Tsk-1 mice; 150 mg/kg orally BID) was 99%±9%. The “reduction of hypodermal thickening” value (Tsk-1 mice; 150 mg/kg orally BID) was 85%±7%, the “hypodermal thickening / myofibroblast counts (in words)” value (Tsk-1 mice; 50 and 150 mg/kg orally BID) was “dose dependently reduced; also recorded: more pronounced; also recorded: dose-dependently reduce” and the IC50 ([1]; Homo sapiens, light or radiation study, nHEK, 1 hr pretreatment, UVB 60 mJ/cm^2, lysed 30 minutes after UV, read-out: IC50 for p-cJun) was 100 to 3000 nM. The “UVB-induced JNK activation (phospho-c-Jun level), in words” value ([1]; nHEK, 0.1, 3, 10 μM) was “strongly Inhibits; also recorded: significantly blocks” and the “inhibition of phospho-Stat3” value ([1]; nHEK, 30 minutes post UV, data not shown) was “minimal”.
